Measured values taken from PubChem BioAssay AID328 (DTP/NCI, 2004).
Values joined by “and” are separate entries in the source; they are usually repeats but may differ in a detail not shown here. Identical values can stand only once. Inconclusive results and toxic doses are left out.

Tested on: BDF1 mice, P388 leukemia ip, median survival T/C
Assay: NCI In Vivo Anticancer Drug Screen. Data for tumor model P388 Leukemia (intraperitoneal) in B6D2F1 (BDF1) mice
Settings: endpoint: median survival time, higher = longer survival
How it was run: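 Mice carrying the transplantable tumour receive compound or vehicle. Survival is followed in each arm, and the treated measure is divided by the vehicle measure.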

[1] = dose: 25.0 mg/kg/injection, schedule: Q01DX009 (ip), vehicle: saline with Tween-80
[2] = dose: 100.0 mg/kg/injection, schedule: Q01DX009 (ip), vehicle: saline with Tween-80
[3] = dose: 100.0 mg/kg/injection, schedule: Q04DX003 (ip), vehicle: saline with Tween-80
[4] = dose: 200.0 mg/kg/injection, schedule: Q01DX009 (ip), vehicle: saline with Tween-80
[5] = dose: 200.0 mg/kg/injection, schedule: Q04DX003 (ip), vehicle: saline with Tween-80
[6] = dose: 400.0 mg/kg/injection, schedule: Q01DX009 (ip), vehicle: saline with Tween-80
[7] = dose: 400.0 mg/kg/injection, schedule: Q04DX003 (ip), vehicle: saline with Tween-80

In the case of C/C(=N/NC(=O)c1ccccc1)c1ccc(Cl)cc1Cl, the T/C (dose: 3.12 mg/kg/injection, schedule: Q04DX003 (ip), vehicle: Klucel (hydroxypropylcellulose) (HPC)) is reported as 110 % of control, the T/C (dose: 6.25 mg/kg/injection, schedule: Q04DX003 (ip), vehicle: Klucel (hydroxypropylcellulose) (HPC)) is reported as 105 % of control and the T/C (dose: 12.5 mg/kg/injection, schedule: Q04DX003 (ip), vehicle: Klucel (hydroxypropylcellulose) (HPC)) is reported as 100 % of control. The T/C (dose: 18.0 mg/kg/injection, schedule: Q01DX009 (ip), vehicle: Klucel (hydroxypropylcellulose) (HPC)) was 100 % of control, the T/C (dose: 18.0 mg/kg/injection, schedule: Q04DX003 (ip), vehicle: Klucel (hydroxypropylcellulose) (HPC)) was 100 % of control and the T/C (dose: 28.0 mg/kg/injection, schedule: Q01DX009 (ip), vehicle: Klucel (hydroxypropylcellulose) (HPC)) was 104 % of control. The T/C (dose: 28.0 mg/kg/injection, schedule: Q04DX003 (ip), vehicle: Klucel (hydroxypropylcellulose) (HPC)) was 100 % of control, the T/C (dose: 40.0 mg/kg/injection, schedule: Q04DX003 (ip), vehicle: Klucel (hydroxypropylcellulose) (HPC)) was 104 % of control and the T/C (dose: 60.0 mg/kg/injection, schedule: Q04DX003 (ip), vehicle: Klucel (hydroxypropylcellulose) (HPC)) was 110 % of control. The T/C (dose: 90.0 mg/kg/injection, schedule: Q04DX003 (ip), vehicle: Klucel (hydroxypropylcellulose) (HPC)) was 110 % of control.

For CSc1nc2[nH]cnc(=S)c2[nH]1, the T/C (dose: 6.25 mg/kg/injection, schedule: Q01DX009 (ip), vehicle: saline with Tween-80) was 104 % of control, the T/C (dose: 12.5 mg/kg/injection, schedule: Q01DX009 (ip), vehicle: saline with Tween-80) was 104 % of control and the T/C [1] was 100 % of control.

In the case of O=C(c1ccc(Cl)cc1)C1Cc2ccccc2C1=O (stereo unspecified), the T/C [2] is reported as 91 % of control, the T/C [3] is reported as 91 % of control and the T/C [4] is reported as 91 % of control. For the same molecule, the T/C [5] was 121 % of control, the T/C [6] was 100 % of control and the T/C [7] was 100 % of control.

For CCCCCCCCCCCCCC(=O)CC, the T/C (dose: 85.0 mg/kg/injection, schedule: Q04DX003 (ip), vehicle: saline with Tween-80) was 91 % of control, the T/C (dose: 135.0 mg/kg/injection, schedule: Q04DX003 (ip), vehicle: saline with Tween-80) was 91 % of control and the T/C [5] was 87 % of control.

COC(OC)c1[nH]c(=S)[nH]c(=O)c1Cc1cccc2ccccc12 was tested, and the T/C [2] was 111 % of control, the T/C [3] was 100 % of control and the T/C [4] was 92 % of control. For the same molecule, the T/C [5] was 91 % of control, the T/C [6] was 88 % of control and the T/C [7] was 87 % of control.

In the case of Cc1[nH]c(=O)[nH]c(=O)c1N(CCF)CCCl, the T/C (dose: 5.0 mg/kg/injection, schedule: Q01DX009 (ip), vehicle: Klucel (hydroxypropylcellulose) (HPC)) is reported as 150 % of control, the T/C (dose: 10.0 mg/kg/injection, schedule: Q01DX009 (ip), vehicle: Klucel (hydroxypropylcellulose) (HPC)) is reported as 172 % of control and the T/C (dose: 10.0 mg/kg/injection, schedule: Q01DX009 (ip), vehicle: saline) is reported as 162 % of control. The T/C (dose: 16.5 mg/kg/injection, schedule: Q04DX003 (ip), vehicle: saline with Tween-80) was 168 % of control, the T/C (dose: 25.0 mg/kg/injection, schedule: Q04DX003 (ip), vehicle: saline with Tween-80) was 204 % of control and the T/C (dose: 37.5 mg/kg/injection, schedule: Q04DX003 (ip), vehicle: saline with Tween-80) was 200 % of control.

With CC(C)NCC(O)COc1ccc(OCc2ccccc2)c(OCc2ccccc2)c1 (stereo unspecified) the T/C [1] was 106 % of control and the T/C (dose: 50.0 mg/kg/injection, schedule: Q01DX009 (ip), vehicle: saline with Tween-80) was 94 % of control.

For Nc1nc(-c2ccccc2N=NN2CCN(N=Nc3ccccc3-c3nc(N)c4ccccc4n3)CC2)nc2ccccc12, the T/C (dose: 0.78 mg/kg/injection, schedule: Q01DX009 (ip), vehicle: Klucel (hydroxypropylcellulose) (HPC)) was 100 % of control, the T/C (dose: 1.56 mg/kg/injection, schedule: Q01DX009 (ip), vehicle: Klucel (hydroxypropylcellulose) (HPC)) was 102 % of control and the T/C (dose: 3.13 mg/kg/injection, schedule: Q01DX009 (ip), vehicle: Klucel (hydroxypropylcellulose) (HPC)) was 111 % of control. For the same molecule, the T/C (dose: 6.25 mg/kg/injection, schedule: Q01DX009 (ip), vehicle: Klucel (hydroxypropylcellulose) (HPC)) was 107 % of control and 110 % of control, the T/C (dose: 12.5 mg/kg/injection, schedule: Q01DX009 (ip), vehicle: Klucel (hydroxypropylcellulose) (HPC)) was 102 % of control and the T/C (dose: 25.0 mg/kg/injection, schedule: Q01DX009 (ip), vehicle: Klucel (hydroxypropylcellulose) (HPC)) was 108 % of control. For the same molecule, the T/C (dose: 50.0 mg/kg/injection, schedule: Q01DX009 (ip), vehicle: Klucel (hydroxypropylcellulose) (HPC)) was 105 % of control.

With CCCCCCCCCC(=O)CCCCC the T/C (dose: 100.0 mg/kg/injection, schedule: Q04DX003 (ip), vehicle: other) was 109 % of control, the T/C (dose: 200.0 mg/kg/injection, schedule: Q04DX003 (ip), vehicle: other) was 109 % of control and the T/C (dose: 400.0 mg/kg/injection, schedule: Q04DX003 (ip), vehicle: other) was 113 % of control.
